According to patent US20150274719A1, “AMINO-SUBSTITUTED IMIDAZO[1,2-A]PYRIDINECARBOXAMIDES AND THEIR USE” (BAYER PHARMA AKTIENGESELLSCHAFT, priority 2012, published 2015):

The compounds below were run against T1, recombinant guanylate cyclase reporter cell line (Rattus norvegicus, UniProt P19686+P20595) (assay: Action on recombinant guanylate cyclase reporter cell line). Conditions: in some cases mean values from individual determinations.
T1 construct: expressed in transfected cells; host or cells: recombinant reporter cell line
T1 sequence (P19686 1-690): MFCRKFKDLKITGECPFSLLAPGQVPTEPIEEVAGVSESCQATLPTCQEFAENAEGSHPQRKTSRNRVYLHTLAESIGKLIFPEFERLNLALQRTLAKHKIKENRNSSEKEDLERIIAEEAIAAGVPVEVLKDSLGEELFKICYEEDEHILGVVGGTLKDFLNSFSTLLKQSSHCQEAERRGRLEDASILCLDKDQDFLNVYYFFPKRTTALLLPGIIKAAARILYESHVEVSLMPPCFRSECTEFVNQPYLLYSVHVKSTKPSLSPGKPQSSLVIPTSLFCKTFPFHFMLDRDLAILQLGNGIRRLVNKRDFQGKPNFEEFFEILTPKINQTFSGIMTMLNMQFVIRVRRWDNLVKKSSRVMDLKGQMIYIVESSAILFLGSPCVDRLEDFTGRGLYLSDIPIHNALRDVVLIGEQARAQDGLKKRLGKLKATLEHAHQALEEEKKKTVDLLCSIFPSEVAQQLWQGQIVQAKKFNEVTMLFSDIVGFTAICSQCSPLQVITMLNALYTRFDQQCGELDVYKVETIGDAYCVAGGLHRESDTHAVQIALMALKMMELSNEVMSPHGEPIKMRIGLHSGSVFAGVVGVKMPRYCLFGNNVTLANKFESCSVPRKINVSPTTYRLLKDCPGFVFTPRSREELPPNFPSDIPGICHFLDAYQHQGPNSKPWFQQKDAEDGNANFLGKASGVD
T1 sequence (P20595 1-619): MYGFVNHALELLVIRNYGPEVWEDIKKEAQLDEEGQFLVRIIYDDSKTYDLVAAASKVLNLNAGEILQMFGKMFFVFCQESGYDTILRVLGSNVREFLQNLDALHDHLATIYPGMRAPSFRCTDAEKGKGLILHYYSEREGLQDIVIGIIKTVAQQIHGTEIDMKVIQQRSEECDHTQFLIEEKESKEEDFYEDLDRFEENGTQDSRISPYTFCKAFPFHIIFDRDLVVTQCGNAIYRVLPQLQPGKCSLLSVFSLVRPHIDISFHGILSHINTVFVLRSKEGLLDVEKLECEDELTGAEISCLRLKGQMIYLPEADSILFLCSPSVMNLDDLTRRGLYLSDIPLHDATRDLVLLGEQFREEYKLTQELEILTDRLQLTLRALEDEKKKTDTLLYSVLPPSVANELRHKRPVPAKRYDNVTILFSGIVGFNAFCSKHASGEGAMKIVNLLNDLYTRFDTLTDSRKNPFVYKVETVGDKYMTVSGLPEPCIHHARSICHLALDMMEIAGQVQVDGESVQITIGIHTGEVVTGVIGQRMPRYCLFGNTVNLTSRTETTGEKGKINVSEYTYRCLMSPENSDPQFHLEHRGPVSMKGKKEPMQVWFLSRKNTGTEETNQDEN
Assay type: cell-based
Protocol: B-2. Action on Recombinant Guanylate Cyclase Reporter Cell Line
The cellular action of the compounds according to the invention is determined on a recombinant guanylate cyclase reporter cell line, as described in F. Wunder et al., Anal. Biochem. 339, 104-112 (2005).
Representative MEC values (MEC=minimal effective concentration) for the compounds according to the invention are shown in the following table (in some cases as mean values obtained from individual determinations): […]

| SMILES | MEC (minimal effective concentration) |
| --- | --- |
| Cc1nc2c(OCc3c(F)cccc3F)cc(CF)cn2c1C(=O)NCC(C)(N)CF (stereo not drawn) [Example 405] | 0.30 µM |
| CCCC(C)(N)CNC(=O)c1c(C)nc2c(OCc3c(F)cccc3F)cc(Cl)cn12 (single isomer, unassigned; enantiomer a) [Example 245, ent-N-(2-Amino-2-methylpentyl)-6-chloro-8-[(2,6-difluorobenzyl)oxy]-2-methylimidazo[1,2-a]-pyridine-3-carboxamide (Enantiomer A)] | 0.10 µM |
| Cc1cc(OCc2c(F)cccc2F)c2nc(C)c(C(=O)NCC(N)C(C)C)n2c1 (single isomer, unassigned) [Example 224, ent-N-(2-Amino-3-methylbutyl)-8-[(2,6-difluorobenzyl)oxy]-2,6-dimethylimidazo[1,2-a]pyridine-3-carboxamide] | 0.30 µM |
| Cc1nc2c(OCc3c(F)cccc3F)cccn2c1C(=O)NC1CCNc2ccc(C(F)(F)F)cc21 (single isomer, unassigned; ent-8) [Example 112, ent-8-[(2,6-difluorobenzyl)oxy]-2-methyl-N-[6-(trifluoromethyl)-1,2,3,4-tetrahydroquinolin-4-yl]imidazo[1,2-a]pyridine-3-carboxamide] | 0.10 µM |
| Cc1cc(OCc2c(F)cccc2F)c2nc(C)c(C(=O)NCC(C)(N)CC(C)C)n2c1 (single isomer, unassigned) [Example 219, ent-N-(2-Amino-2,4-dimethylpentyl)-8-[(2,6-difluorobenzyl)oxy]-2,6-dimethylimidazo[1,2-a]-pyridine-3-carboxamide] | 0.30 µM |
| Cc1cc(OCc2c(F)cccc2F)c2nc(C)c(C(=O)NCCN3C[C@@H](C)O[C@@H](C)C3)n2c1 [Example 167, 8-[(2,6-difluorobenzyl)oxy]-N-{2-[(2R,6S)-2,6-dimethylmorpholin-4-yl]ethyl}-2,6-dimethyl-imidazo[1,2-a]pyridine-3-carboxamide] | 1.00 µM |
| Cc1nc2c(OCc3c(F)cccc3F)cc(Cl)cn2c1C(=O)NC1CNc2ccccc21 (racemic) [Example 49, rac-6-Chloro-8-[(2,6-difluorobenzyl)oxy]-N-(2,3-dihydro-1H-indol-3-yl)-2-methylimidazo[1,2-a]-pyridine-3-carboxamide] | 0.30 µM |
| Cc1nc2c(OCc3c(F)cccc3F)cccn2c1C(=O)NC1CCNc2ccc(F)cc21 (single isomer, unassigned; ent-8) [Example 106, ent-8-[(2,6-difluorobenzyl)oxy]-N-(6-fluoro-1,2,3,4-tetrahydroquinolin-4-yl)-2-methylimidazo[1,2-a]pyridine-3-carboxamide] | 0.03 µM |
| Cc1cc(OCc2c(F)cccc2F)c2nc(C)c(C(=O)NCC(N)C#N)n2c1 (single isomer, unassigned; enantiomer b) [Example 402, ent-N-(2-amino-2-cyanoethyl)-8-[(2,6-difluorobenzyl)oxy]-2,6-dimethylimidazo[1,2-a]pyridine-3-carboxamide (Enantiomer B)] | 0.30 µM |
| Cc1cc(OCc2c(F)cccc2F)c2nc(C)c(C(=O)NC3C(N)C3(C)C)n2c1 (racemic) [Example 341, rac-N-(3-amino-2,2-dimethylcyclopropyl)-8-[(2,6-difluorobenzyl)oxy]-2,6-dimethylimidazo[1,2-a]pyridine-3-carboxamide (racemate)] | 0.30 µM |
| Cc1cc(OCc2c(F)cccc2F)c2nc(C)c(C(=O)NCC(C)(N)C(F)(F)F)n2c1 (single isomer, unassigned) [Example 241, ent-N-(2-Amino-3,3,3-trifluoro-2-methylpropyl)-8-[(2,6-difluorobenzyl)oxy]-2,6-dimethylimidazo-[1,2-a]pyridine-3-carboxamide] | 0.30 µM |
| Cc1nc2c(OCc3c(F)cccc3F)cc(Cl)cn2c1C(=O)NCCN [Example 36, N-(2-aminoethyl)-6-chloro-8-[(2,6-difluorobenzyl)oxy]-2-methylimidazo[1,2-a]-pyridine-3-carboxamide] | 1.00 µM |
| Cc1cc(OCc2c(F)cccc2F)c2nc(C)c(C(=O)NC(CN)c3cccc(C(F)(F)F)c3)n2c1 (racemic) [Example 394, rac-N-{2-amino-1-[3-(trifluoromethyl)phenyl]ethyl}-8-[(2,6-difluorobenzyl)oxy]-2,6-dimethylimidazo[1,2-a]pyridine-3-carboxamide] | 0.30 µM |
| Cc1nc2c(OCc3c(F)cccc3F)cc(Cl)cn2c1C(=O)NCC(C)(N)CC(C)C (single isomer, unassigned) [Example 226, ent-N-(2-Amino-2,4-dimethylpentyl)-6-chloro-8-[(2,6-difluorobenzyl)oxy]-2-methylimidazo[1,2-a]pyridine-3-carboxamide] | 0.10 µM |
| COCC(CN)NC(=O)c1c(C)nc2c(OCc3c(F)cccc3F)cccn12 (single isomer, unassigned) [Example 122, ent-N-(1-Amino-3-methoxypropan-2-yl)-8-[(2,6-difluorobenzyl)oxy]-2-methylimidazo[1,2-a]-pyridine-3-carboxamide ditrifluoroacetate] | 1.00 µM |
| Cc1cc(OCc2c(F)cccc2F)c2nc(C)c(C(=O)NCC(C)(N)Cc3ccccn3)n2c1 (single isomer, unassigned; enantiomer a) [Example 298, ent-N-[2-amino-2-methyl-3-(pyridin-2-yl)propyl]-8-[(2,6-difluorobenzyl)oxy]-2,6-dimethyl-imidazo[1,2-a]pyridine-3-carboxamide (Enantiomer A)] | 0.10 µM |
| Cc1cc(OCc2c(F)cccc2F)c2nc(C)c(C(=O)NCC(C)(N)C3CC3)n2c1 (single isomer, unassigned; enantiomer a) [Example 260, ent-N-(2-Amino-2-cyclopropylpropyl)-8-[(2,6-difluorobenzyl)oxy]-2,6-dimethylimidazo[1,2-a]-pyridine-3-carboxamide (Enantiomer A)] | 0.10 µM |
| Cc1nc2c(OCc3c(F)cccc3F)cccn2c1C(=O)NC(C)[C@@H](C)N (stereo partly drawn) [Example 121, N-[(3R)-3-Aminobutan-2-yl]-8-[(2,6-difluorobenzyl)oxy]-2-methylimidazo[1,2-a]pyridine-3-carboxamide] | 0.30 µM |
| Cc1cc(OCc2c(F)cccc2F)c2nc(C)c(C(=O)NC(C)CN)n2c1 (stereo not drawn) [Example 48, ent-N-(1-Aminopropan-2-yl)-8-[(2,6-difluorobenzyl)oxy]-2,6-dimethylimidazo[1,2-a]pyridine-3-carboxamide] | 1.00 µM |
| Cc1cc(OCc2c(F)cccc2F)c2nc(C)c(C(=O)NCC(C)(N)Cc3ncn(-c4cc(C)on4)n3)n2c1 (racemic) [Example 321, rac-N-{2-amino-2-methyl-3-[1-(5-methyl-1,2-oxazol-3-yl)-1H-1,2,4-triazol-3-yl]propyl}-8-[(2,6-difluorobenzyl)oxy]-2,6-dimethylimidazo[1,2-a]pyridine-3-carboxamide] | 0.30 µM |
| Cc1nc2c(OCc3c(F)cccc3F)cccn2c1C(=O)N[C@@H](C)CN1CCOCC1 [Example 171, 8-[(2,6-difluorobenzyl)oxy]-2-methyl-N-[(2S)-1-(morpholin-4-yl)propan-2-yl]imidazo[1,2-a]-pyridine-3-carboxamide] | 1.00 µM |
